Laboratory results as given in patent US20200216416A1, “QUINOLINE COMPOUNDS AS INHIBITORS OF TAM AND MET KINASES” (Array BioPharma Inc., priority 2019, published 2020).

Legend:
[1] = target: T1, MDR1 transfected LLC-PK1 cells (Homo sapiens, UniProt P08183); assay: MDR1 LLC-PK1 permeability assay; assay type: in vitro ADME; settings: efflux ratio = Papp(B-A)/Papp(A-B)
T1 construct: expressed in transfected cells; host or cells: LLC-PK1
Procedure, shortened: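 MDR1-transfected LLC-PK1 monolayers dosed at 1 μM test article (1% organic) in A→B and B→A directions, in triplicate, for 2 h at 37 °C; lucifer yellow monitored monolayer integrity. Compound measured by LC-MS/MS against labetalol internal standard; Papp averaged per replicate, efflux ratio = Papp(B−A)/Papp(A−B).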

[2] = target: T2, His-tagged recombinant human AXL cytoplasmic domain (Homo sapiens, UniProt P30530); assay: AXL Enzyme Assay (LanthaScreen Eu Kinase Binding); settings: averaged IC50; 60-minute incubation at 22° C.; TR-FRET
T2 construct: His-tagged recombinant human AXL cytoplasmic domain
T2 sequence (P30530 473-894 limits assumed): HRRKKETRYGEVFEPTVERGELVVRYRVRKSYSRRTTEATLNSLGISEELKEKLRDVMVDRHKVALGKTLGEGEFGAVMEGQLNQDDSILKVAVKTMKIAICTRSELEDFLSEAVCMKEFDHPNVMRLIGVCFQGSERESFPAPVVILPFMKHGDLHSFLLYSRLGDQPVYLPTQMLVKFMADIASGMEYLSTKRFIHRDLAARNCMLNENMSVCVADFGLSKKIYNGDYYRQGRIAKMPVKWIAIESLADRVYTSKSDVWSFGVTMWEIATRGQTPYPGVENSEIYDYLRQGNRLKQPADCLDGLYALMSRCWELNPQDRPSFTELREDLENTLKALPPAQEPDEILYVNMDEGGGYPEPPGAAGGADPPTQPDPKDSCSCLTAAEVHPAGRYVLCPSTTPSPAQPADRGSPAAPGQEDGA
Procedure, shortened: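 TR-FRET binding-displacement format: 20 nM Alexa Fluor Tracer 236, 2 nM biotin-anti-His and 2 nM Eu-streptavidin in 25 mM HEPES pH 7.4, 10 mM MgCl2, 0.01% Triton X-100, 2% DMSO. After 60 min at 22 °C, ratiometric percent of control was fitted to a 4-parameter logistic curve, IC50 taken at 50 POC.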

human MET kinase L1195V = target: T3, human MET kinase L1195V (Homo sapiens, UniProt P08581, L1195V); assay: c-Met Enzyme Assay, L1195V mutant; assay type: binding; settings: averaged IC50; L1195V 10 nM; 60-minute incubation at 22° C.
T3 construct: GST-tagged recombinant human MET kinase domain; purchased Signal Chem
T3 sequence (P08581 1078-1345 L1195V limits assumed): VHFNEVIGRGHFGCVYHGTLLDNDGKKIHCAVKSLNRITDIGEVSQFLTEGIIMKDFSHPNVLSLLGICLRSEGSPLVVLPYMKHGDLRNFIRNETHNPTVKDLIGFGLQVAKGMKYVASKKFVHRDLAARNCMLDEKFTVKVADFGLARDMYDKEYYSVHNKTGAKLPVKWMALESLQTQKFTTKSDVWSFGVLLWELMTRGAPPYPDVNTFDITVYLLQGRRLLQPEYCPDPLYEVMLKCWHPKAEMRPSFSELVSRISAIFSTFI
Protocol: The affinity of compound binding to wild type and mutant human MET kinases was measured using Invitrogen's LanthaScreen™ Eu Kinase Binding technology. Briefly, GST-tagged recombinant human MET kinase domain from Signal Chem (see Table 8 below for concentration in assay) was incubated with 50 nM Alexa-Fluor® Tracer 236 (Invitrogen Cat No. PR9078A) and 2 nM Europium-anti-GST (Invitrogen Cat. No. A15116) along with test compound in a buffer consisting of 25 mM HEPES, pH 7.4, 10 mM MgCl2, 0.01% Triton X-100, 1mM DTT, and 2% DMSO. Compounds were typically prepared in a three-fold serial dilution in DMSO and added to the assay to give the appropriate final concentration. After a 60-minute incubation at 22° C., the reaction was measured using a PerkinElmer EnVision multimode plate reader via TR-FRET dual wavelength detection, and the percent of control (POC) calculated using a ratiometric emission factor. […] The POC values were fit to a 4 parameter logistic curve and the IC50 value is point where the curve crosses 50 POC.

T1 sequence (P08183 whole entry): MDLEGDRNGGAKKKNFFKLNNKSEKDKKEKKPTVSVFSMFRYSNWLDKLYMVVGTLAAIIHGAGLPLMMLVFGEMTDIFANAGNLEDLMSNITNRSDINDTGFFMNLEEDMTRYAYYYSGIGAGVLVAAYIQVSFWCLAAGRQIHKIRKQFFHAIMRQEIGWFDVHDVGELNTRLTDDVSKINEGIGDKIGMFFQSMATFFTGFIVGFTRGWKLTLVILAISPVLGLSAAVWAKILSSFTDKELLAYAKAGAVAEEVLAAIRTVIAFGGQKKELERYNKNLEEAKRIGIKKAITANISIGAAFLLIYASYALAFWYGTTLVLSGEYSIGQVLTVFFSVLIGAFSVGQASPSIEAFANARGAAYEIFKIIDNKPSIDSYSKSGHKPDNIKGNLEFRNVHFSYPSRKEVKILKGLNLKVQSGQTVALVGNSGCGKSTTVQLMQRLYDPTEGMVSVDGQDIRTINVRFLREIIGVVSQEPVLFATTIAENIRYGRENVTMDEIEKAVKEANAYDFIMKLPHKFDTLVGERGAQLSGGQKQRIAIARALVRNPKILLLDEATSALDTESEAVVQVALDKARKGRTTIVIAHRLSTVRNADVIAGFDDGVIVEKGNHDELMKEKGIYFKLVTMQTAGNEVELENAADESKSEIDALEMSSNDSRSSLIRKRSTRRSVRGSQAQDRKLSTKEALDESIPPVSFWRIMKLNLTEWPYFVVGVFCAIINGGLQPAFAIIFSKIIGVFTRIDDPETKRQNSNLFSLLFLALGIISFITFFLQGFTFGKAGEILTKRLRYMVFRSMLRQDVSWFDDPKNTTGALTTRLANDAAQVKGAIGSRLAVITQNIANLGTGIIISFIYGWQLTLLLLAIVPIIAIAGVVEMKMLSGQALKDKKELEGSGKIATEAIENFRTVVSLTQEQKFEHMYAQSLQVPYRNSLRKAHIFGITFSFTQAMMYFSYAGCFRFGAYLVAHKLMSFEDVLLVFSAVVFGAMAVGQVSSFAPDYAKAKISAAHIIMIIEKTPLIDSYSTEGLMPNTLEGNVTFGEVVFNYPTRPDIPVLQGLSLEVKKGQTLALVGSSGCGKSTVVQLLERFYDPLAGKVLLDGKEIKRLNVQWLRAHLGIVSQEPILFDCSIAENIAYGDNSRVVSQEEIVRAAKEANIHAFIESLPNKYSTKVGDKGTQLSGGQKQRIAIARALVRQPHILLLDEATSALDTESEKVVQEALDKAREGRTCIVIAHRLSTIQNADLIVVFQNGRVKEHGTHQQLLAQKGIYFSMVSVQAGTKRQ

`COc1cc2nccc(Oc3ccc(NC(=O)c4cn(CCC(C)C)cc(-c5ccc(F)c(F)c5)c4=O)nc3)c2cc1OC` [Example 35, 5-(3,4-difluorophenyl)-N-(5-((6,7-dimethoxyquinolin-4yl)oxy)pyridin-2-yl)-1-isopentyl-4-oxo-1,4-dihydropyridine-3-carboxamide] was tested, and the “MDR1 Pe Ratio” value [1] was 3.5, the IC50 [2] was 6 nM and the IC50 (human MET kinase L1195V) was 34.3 nM.
With `COc1cc2c(Oc3ccc(NC(=O)c4cn(C(C)C)c(C)c(-c5ccc(F)cc5)c4=O)nc3)ccnc2cc1F` [Example 48, N-(5-((7-fluoro-6-methoxyquinolin-4yl)oxy)pyridin-2-yl)-5-(4-fluorophenyl)-1-isopropyl-6-methyl-4-oxo-1,4-dihydropyridine-3-carboxamide] the IC50 [2] was 2 nM and the IC50 (human MET kinase L1195V) was 31.7 nM.
Work on `COc1cc2c(Oc3ccc(NC(=O)c4cn(C(C)C)cc(-c5ccc(F)cc5)c4=O)nc3)ccnc2cc1F` [Example 49, N-(5-((7-fluoro-6-methoxyquinolin-4yl)oxy)pyridin-2-yl)-5-(4-fluorophenyl)-1-isopropyl-4-oxo-1,4-dihydropyridine-3-carboxamide] yielded an IC50 [2] of 1 nM and an IC50 (human MET kinase L1195V) of 459 nM.
`CC(C)n1cc(C(=O)Nc2ccc(Oc3ccnc4cc(OC(F)(F)F)ccc34)cn2)c(=O)c(-c2ccc(F)cc2)c1` [Example 50, 5-(4-fluorophenyl)-1-isopropyl-4-oxo-N-(5-((7-(trifluoromethoxy)quinolin-4-yl)oxy)pyridin-2-yl)-1,4-dihydropyridine-3-carboxamide] gave an IC50 [2] of 16 nM and an IC50 (human MET kinase L1195V) of 1030 nM.
In the case of `CCOc1ccc2nccc(Oc3ccc(NC(=O)c4cn(C(C)C)cc(-c5ccc(F)cc5)c4=O)nc3)c2c1` [Example 51, N-(5-((6-ethoxyquinolin-4-yl)oxy)pyridin-2-yl)-5-(4-fluorophenyl)-1-isopropyl-4-oxo-1,4-dihydropyridine-3-carboxamide], the IC50 [2] is reported as 5 nM and the IC50 (human MET kinase L1195V) is reported as 495 nM.
`CCOc1ccc2c(Oc3ccc(NC(=O)c4cn(C(C)C)cc(-c5ccc(F)cc5)c4=O)nc3)ccnc2c1` [Example 52, N-(5-((7-ethoxyquinolin-4-yl)oxy)pyridin-2-yl)-5-(4-fluorophenyl)-1-isopropyl-4-oxo-1,4-dihydropyridine-3-carboxamide] was tested, and the IC50 [2] was 4 nM and the IC50 (human MET kinase L1195V) was 73.6 nM.
Compound `COc1cc2nccc(Oc3cnc(NC(=O)c4cn(C(C)C)cc(-c5ccc(F)cc5)c4=O)nc3)c2cc1OC` [Example 54, N-(5-((6,7-dimethoxyquinolin-4-yl)oxy)pyrimidin-2-yl)-5-(4-fluorophenyl)-1-isopropyl-4-oxo-1,4-dihydropyridine-3-carboxamide] has an IC50 [2] of 5 nM and an IC50 (human MET kinase L1195V) of 14.7 nM.
Work on `COc1cc2nccc(Oc3cnc(NC(=O)c4cn(C(C)C)c(C)c(-c5ccc(F)cc5)c4=O)nc3)c2cc1OC` [Example 55, N-(5-((6,7-dimethoxyquinolin-4-yl)oxy)pyrimidin-2-yl)-5-(4-fluorophenyl)-1-isopropyl-6-methyl-4-oxo-1,4-dihydropyridine-3-carboxamide] yielded an IC50 [2] of 2 nM and an IC50 (human MET kinase L1195V) of 5.1 nM.
Work on `COc1cc2c(Oc3ccc(NC(=O)c4cn(C(C)C)cc(-c5ccc(F)cc5)c4=O)nc3)ccnc2cc1OCCCN1CCOCC1` [Example 56, 5-(4-fluorophenyl)-1-isopropyl-N-(5-((6-methoxy-7-(3-morpholinopropoxy)quinolin-4-yl)oxy)pyridin-2-yl)-4-oxo-1,4-dihydropyridine-3-carboxamide] yielded an IC50 [2] of 3 nM and an IC50 (human MET kinase L1195V) of 5.3 nM.
Compound `COc1cc2nccc(Oc3ccc(NC(=O)c4cn(C(C)C)cc(-c5ccc(F)cc5)c4=O)cn3)c2cc1OC` [Example 58, N-(6-((6,7-dimethoxyquinolin-4-yl)oxy)pyridin-3-yl)-5-(4-fluorophenyl)-1-isopropyl-4-oxo-1,4-dihydropyridine-3-carboxamide] has an IC50 [2] of 1 nM and an IC50 (human MET kinase L1195V) of 35 nM.
